Tested on: HCC1954 breast ductal carcinoma cells
Assay: HCC1954 5-day cell viability assay (Cell Titer Glo 2.0)
Assay type: cell-based
Conditions: Homo sapiens, HCC1954, 120 h, read-out: IC50 (HCC1954 5-Day Assay)
Method: (§1) *Biological assay protocol: HCC1954 breast ductal carcinoma or SK-BR-3 cells (ATCC, Manassas, VA, USA) were seeded into 384-well white-walled culture plates and allowed to adhere for 2-4 hours. Cells were then treated with test articles at least in duplicate by addition of 5-fold serially diluted test articles prepared at 2× final concentration and incubated at 37° C. for 120 hours. Cell viability following treatment was determined by Cell Titer Glo 2.0 Assay (Promega, Madison, WI, USA) and normalized to non-treated controls. Dose-response relationships were analyzed using GraphPad Prism (La Jolla, CA, USA), and IC50 values were derived from non-linear regression analyses using a 4-parameter logistic equation
as §1, with “HCC1954” for “*Biological assay protocol: HCC1954”, “carcinoma” for “carcinoma or SK-BR-3”, “treated” for “treated with test articles”, “equation.” for “equation”

## CC[C@H](C)[C@@H]([C@@H](CC(=O)N1CCC[C@H]1[C@H](OC)[C@@H](C)C(=O)N[C@H](CC#N)Cc1cccc(N)c1)OC)N(C)C(=O)[C@@H](NC(=O)[C@H](C)N(C)C)C(C)C [Compound 4, (S)—N-((3R,4S,5S)-1-((S)-2-((1R,2R)-3-(((S)-1-(3-aminophenyl)-3-cyanopropan-2-yl)amino)-1-methoxy-2-methyl-3-oxopropyl)pyrrolidin-1-yl)-3-methoxy-5-methyl-1-oxoheptan-4-yl)-2-((S)-2-(dimethylamino)propanamido)-N,3-dimethylbutanamide]
  IC50: 0.49 nM

## CC[C@H](C)[C@@H]([C@@H](CC(=O)N1CCC[C@H]1[C@H](OC)[C@@H](C)C(=O)N(C)[C@H](CC#N)Cc1cccc(N)c1)OC)N(C)C(=O)[C@@H](NC(=O)[C@H](C)N(C)C)C(C)C [Compound 8, (S)—N-((3R,4S,5S)-1-((S)-2-((1R,2R)-3-(((S)-1-(3-aminophenyl)-3-cyanopropan-2-yl)(methyl)amino)-1-methoxy-2-methyl-3-oxopropyl)pyrrolidin-1-yl)-3-methoxy-5-methyl-1-oxoheptan-4-yl)-2-((S)-2-(dimethylamino)propanamido)-N,3-dimethylbutanamide]
  IC50: 0.22 nM

## CC[C@H](C)[C@@H]([C@@H](CC(=O)N1CCC[C@H]1[C@H](OC)[C@@H](C)C(=O)N[C@H](CC#N)Cc1cccc(N)c1)OC)N(C)C(=O)[C@@H](NC(=O)[C@H](C(C)C)N(C)C)C(C)C [Compound 2, (S)—N-((3R,4S,5S)-1-((S)-2-((1R,2R)-3-(((S)-1-(3-aminophenyl)-3-cyanopropan-2-yl)amino)-1-methoxy-2-methyl-3-oxopropyl)pyrrolidin-1-yl)-3-methoxy-5-methyl-1-oxoheptan-4-yl)-2-((S)-2-(dimethylamino)-3-methylbutanamido)-N,3-dimethylbutanamide]
  IC50: 0.37 nM

## CC[C@H](C)[C@@H]([C@@H](CC(=O)N1CCC[C@H]1[C@H](OC)[C@@H](C)C(=O)N[C@H](CC#N)Cc1cccc(N)c1)OC)N(C)C(=O)[C@@H](NC(=O)CN(C)C)C(C)C [Compound 6, (S)—N-((3R,4S,5S)-1-((S)-2-((1R,2R)-3-(((S)-1-(3-aminophenyl)-3-cyanopropan-2-yl)amino)-1-methoxy-2-methyl-3-oxopropyl)pyrrolidin-1-yl)-3-methoxy-5-methyl-1-oxoheptan-4-yl)-2-(2-(dimethylamino)acetamido)-N,3-dimethylbutanamide]
  IC50: 0.78 nM

## CC[C@H](C)[C@@H]([C@@H](CC(=O)N1CCC[C@H]1[C@H](OC)[C@@H](C)C(=O)N(C)[C@H](CC#N)Cc1cccc(N)c1)OC)N(C)C(=O)[C@@H](NC(=O)[C@H](C(C)C)N(C)C)C(C)C [Compound 7, (S)—N-((3R,4S,5S)-1-((S)-2-((1R,2R)-3-(((S)-1-(3-aminophenyl)-3-cyanopropan-2-yl)(methyl)amino)-1-methoxy-2-methyl-3-oxopropyl)pyrrolidin-1-yl)-3-methoxy-5-methyl-1-oxoheptan-4-yl)-2-((S)-2-(dimethylamino)-3-methylbutanamido)-N,3-dimethylbutanamide]
  IC50: 0.07 nM

## CC[C@H](C)[C@@H]([C@@H](CC(=O)N1CCC[C@H]1[C@H](OC)[C@@H](C)C(=O)N[C@H](CC#N)Cc1ccc(N)cc1)OC)N(C)C(=O)[C@@H](NC(=O)[C@H](C(C)C)N(C)C)C(C)C [Compound 1, (S)—N-((3R,4S,5S)-1-((S)-2-((1R,2R)-3-(((S)-1-(4-aminophenyl)-3-cyanopropan-2-yl)amino)-1-methoxy-2-methyl-3-oxopropyl)pyrrolidin-1-yl)-3-methoxy-5-methyl-1-oxoheptan-4-yl)-2-((S)-2-(dimethylamino)-3-methylbutanamido)-N,3-dimethylbutanamide]
  IC50: 0.31 nM

## CC[C@H](C)[C@@H]([C@@H](CC(=O)N1CCC[C@H]1[C@H](OC)[C@@H](C)C(=O)N(C)[C@H](CC#N)Cc1cccc(N)c1)OC)N(C)C(=O)[C@@H](NC(=O)[C@@H](C)N(C)C)C(C)C [Compound 9, (S)—N-((3R,4S,5S)-1-((S)-2-((1R,2R)-3-(((S)-1-(3-aminophenyl)-3-cyanopropan-2-yl)(methyl)amino)-1-methoxy-2-methyl-3-oxopropyl)pyrrolidin-1-yl)-3-methoxy-5-methyl-1-oxoheptan-4-yl)-2-((R)-2-(dimethylamino)propanamido)-N,3-dimethylbutanamide]
  IC50: 0.58 nM

## CC[C@H](C)[C@@H]([C@@H](CC(=O)N1CCC[C@H]1[C@H](OC)[C@@H](C)C(=O)N[C@H](CC#N)Cc1cccc(N)c1)OC)N(C)C(=O)[C@@H](NC(=O)[C@@H](C(C)C)N(C)C)C(C)C [Compound 3, (S)—N-((3R,4S,5S)-1-((S)-2-((1R,2R)-3-(((S)-1-(3-aminophenyl)-3-cyanopropan-2-yl)amino)-1-methoxy-2-methyl-3-oxopropyl)pyrrolidin-1-yl)-3-methoxy-5-methyl-1-oxoheptan-4-yl)-2-((R)-2-(dimethylamino)-3-methylbutanamido)-N,3-dimethylbutanamide]
  IC50: 0.12 nM

## CC[C@H](C)[C@@H]([C@@H](CC(=O)N1CCC[C@H]1[C@H](OC)[C@@H](C)C(=O)N[C@H](CC#N)Cc1cccc(N)c1)OC)N(C)C(=O)[C@@H](NC(=O)[C@@H](C)N(C)C)C(C)C [Compound 5, (S)—N-((3R,4S,5S)-1-((S)-2-((1R,2R)-3-(((S)-1-(3-aminophenyl)-3-cyanopropan-2-yl)amino)-1-methoxy-2-methyl-3-oxopropyl)pyrrolidin-1-yl)-3-methoxy-5-methyl-1-oxoheptan-4-yl)-2-((R)-2-(dimethylamino)propanamido)-N,3-dimethylbutanamide]
  IC50: 0.37 nM
